Measurements published in patent US8138340B2, “Bicyclononene derivatives” (Actelion Pharmaceuticals Ltd., priority 2004, dated 2012).

Biological target: T1, recombinant human renin (Homo sapiens, UniProt P00797)
T1 sequence (P00797 67-406): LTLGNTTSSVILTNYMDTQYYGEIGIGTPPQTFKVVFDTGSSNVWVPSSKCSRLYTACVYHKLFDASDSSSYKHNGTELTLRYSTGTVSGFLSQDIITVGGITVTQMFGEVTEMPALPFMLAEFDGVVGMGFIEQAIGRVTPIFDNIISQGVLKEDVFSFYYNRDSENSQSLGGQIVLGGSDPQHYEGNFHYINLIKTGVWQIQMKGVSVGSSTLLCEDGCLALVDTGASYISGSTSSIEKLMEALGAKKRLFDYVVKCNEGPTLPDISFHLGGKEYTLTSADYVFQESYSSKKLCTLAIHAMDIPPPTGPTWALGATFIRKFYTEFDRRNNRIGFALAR
Test: Primary renin inhibition assay: IC50 in buffer, 384 well MTP (AngI quantified by EIA)
Assay type: biochemical
Conditions: human tetradecapeptide substrate, assay buffer pH 7.4, 37° C. for 3 h
Procedure: 1. Enzyme Immuno Assay (EIA) to Estimate AngI Accumulation and Renin Inhibition
1.1 Preparation of AngI-BSA Conjugate
1.3 mg (1 μmol) of AngI [1-10 (Bachem, H-1680)] and 17 mg (0.26 μmol) of BSA (Fluka, 05475) were dissolved in 4 mL of 0.1M phosphate buffer, pH 7.4, after which 2 mL of a 1:100 dilution of glutaraldehyde in H2O (Sigma G-5882) was added dropwise. The mixture was incubated overnight at 4° C., then dialyzed against 2 liters of 0.9% NaCl, twice for 4 h at rt, followed by dialysis against 2 liters of PBS 1× overnight at rt. The solution was then filtered with a Syringe filter, 0.45 μm (Nalgene, Cat. No. 194-2545). The conjugate can be stored in polypropylene tubes in 0.05% sodium azide at 4° C. for at least 12 months.
1.2 Preparation of BSA-AngI Coated MTP
Microtiter plates (MPT384, MaxiSorp™, Nunc) were incubated overnight at 4° C. with 80 μl of AngI (1-10)/BSA conjugate, diluted 1:100'000 in PBS 1× in a teflon beaker (exact dilution dependent on batch of conjugate), emptied, filled with 90 μl of blocking solution [0.5% BSA (Sigma A-2153) in PBS 1×, 0.02% NaN3], and incubated for at least 2 h at rt, or overnight at 4° C. 96 well MTP (MaxiSorp™, Nunc) were coated with […] conjugate and blocked with 250 μl blocking solution as above, except that the blocking solution contained 3% BSA. The plates can be stored in blocking solution at 4° C. for 1 month.
1.3 AngI-EIA in 384 well MTP
The AngI (1-10)/BSA coated MTP were washed 3 times with wash buffer (PBS 1×, 0.01% Tween 20) and filled with 75 μl of primary antibody solution (anti-AngI antiserum, pre-diluted 1:10 in horse serum), diluted to a final concentration of 1:100'000 in assay buffer (PBS 1×, 1 mM EDTA, 0.1% BSA, pH 7.4). 5 μl of the renin reaction (or standards in assay buffer) (see below) were added to the primary antibody solution and the plates were incubated overnight at 4° C. After the incubation the plates were washed 3 times with wash buffer and incubated with secondary antibody [anti-rabbit IgG, linked to horseradish peroxidase (Amersham Bioscience, NA 934V), diluted 1:2'000 in wash buffer] for 2 h at rt. The plates were washed 3 times with wash buffer and then incubated for 1 h at rt with substrate solution [1.89 mM ABTS (2.2′-azino-di-(3-ethyl-benzthiazolinsulfonate)] (Roche Diagnostics, 102 946) and 2.36 mM H2O2 [30%, (Fluka, 95300] in substrate buffer (0.1M sodium acetate, 0.05M sodium dihydrogen phosphate, pH 4.2). The OD of the plate was read at 405 nm in a microplate reader (FLUOStar Optima from BMG). The production of AngI during the renin reaction was quantified by comparing the OD of the sample with the OD of a standard curve of AngI(1-10), measured in parallel.
2. Primary Renin Inhibition Assay: IC50 in Buffer, 384 well MTP
The renin assay was adapted from an assay described before (Fischli W. et al., Hypertension, 1991, 18:22-31) and consists of two steps: in the first step, recombinant human renin is incubated with its substrate (commercial human tetradecapeptide renin substrate) to create the product Angiotensin I (AngI). In the second step, the accumulated AngI is measured by an immunological assay (enzyme immuno assay, EIA). The detailed description of this assay is found below. The EIA is very sensitive and well suited for renin activity measurements in buffer or in plasma. Due to the low concentration of renin used in this assay (2 fmol per assay tube or 10 pM) it is possible to measure inhibitor affinities in this primary assay down to low pM concentration.
Recombinant human renin (3 pg/μl) in assay buffer (PBS 1×, 1 mM EDTA, 0.1% BSA, pH 7.4), human tetradecapeptide (1-14) substrate (Bachem, M-1120) [5 μM in 10 mM HCl], hydroxyquinoline sulfate (Fluka, 55100) [30 mM in H2O] and assay buffer were premixed at 4° C. at a ratio of 100:30:10:145. 47.5 μl per well of this premix was transferred into polypropylene plates (MTP384, Nunc). […]

| Compound | IC50 [nM] |
| --- | --- |
| O=C(C1=C(c2nc(CCCOc3cc(C(F)(F)F)ccc3Cl)cs2)C[C@@H]2CNC[C@H]1N2)N(Cc1cccc(Cl)c1Cl)C1CC1 (racemic) [Example 2, (rac.)-(1R*, 5S*)-7-{4-[3-(2-Chloro-5-trifluoromethylphenoxy)propyl]thiazol-2-yl}-3,9-diazabicyclo[3.3.1]non-6-ene-6-carboxylic acid cyclopropyl-(2,3-dichlorobenzyl)amide] | 94 |
| Cc1ccc(F)c(OCCOc2ncc(C3=C(C(=O)N(Cc4cccc(Cl)c4Cl)C4CC4)[C@H]4CNC[C@@H](C3)N4)s2)c1Cl (racemic) [Example 7, (rac.)-(1R*, 5S*)-7-{2-[2-(2-Chloro-6-fluoro-3-methylphenoxy)ethoxy]thiazol-5-yl}-3,9-diazabicyclo[3.3.1]non-6-ene-6-carboxylic acid cyclopropyl-(2,3-dichlorobenzyl)-amide] | 2.9 |
| Cc1ccc(F)c(OCCCc2coc(C3=C(C(=O)N(Cc4cccc(Cl)c4Cl)C4CC4)[C@H]4CNC[C@@H](C3)N4)n2)c1Cl (racemic) [Example 12, (rac.)-(1R*, 5S*)-7-{4-[3-(2-Chloro-6-fluoro-3-methylphenoxy)propyl]oxazol-2-yl}-3,9-diazabicyclo[3.3.1]non-6-ene-6-carboxylic acid cyclopropyl-(2,3-dichlorobenzyl)-amide] | 46 |
| COc1cccc(CN(C(=O)C2=C(c3cnc(CCCOc4c(Cl)cc(C)cc4Cl)s3)C[C@@H]3CNC[C@H]2N3)C2CC2)c1C (racemic) [Example 21, (rac.)-(1R*, 5S*)-7-{2-[3-(2,6-Dichloro-4-methylphenoxy)propyl]thiazol-5-yl}-3,9-diazabicyclo[3.3.1]non-6-ene-6-carboxylic acid cyclopropyl-(3-methoxy-2-methylbenzyl)amide] | 4.4 |
| COc1cccc(CN(C(=O)C2=C(c3cnc(OCCOc4c(Cl)cc(C)cc4Cl)s3)C[C@@H]3CNC[C@H]2N3)C2CC2)c1C (racemic) [Example 35, (rac.)-(1R*, 5S*)-7-{2-[2-(2,6-Dichloro-4-methylphenoxy)ethoxy]thiazol-5-yl}-3,9-diazabicyclo[3.3.1]non-6-ene-6-carboxylic acid cyclopropyl-(3-methoxy-2-methylbenzyl)amide] | 1.3 |
| Cc1cc(Cl)c(OCCOc2ncc(C3=C(C(=O)N(Cc4cccc(F)c4F)C4CC4)[C@H]4CNC[C@@H](C3)N4)s2)c(Cl)c1 (racemic) [Example 45, (rac.)-(1R*, 5S*)-7-{2-[2-(2,6-Dichloro-4-methylphenoxy)ethoxy]thiazol-5-yl}-3,9-diazabicyclo[3.3.1]non-6-ene-6-carboxylic acid cyclopropyl-(2,3-difluorobenzyl)amide] | 15 |
| Cc1cc(Cl)c(OCCOc2ncc(C3=C(C(=O)N(Cc4cccc(Cl)c4C)C4CC4)[C@H]4CNC[C@@H](C3)N4)s2)c(Cl)c1 (racemic) [Example 52, (rac.)-(1R*, 5S*)-7-{2-[2-(2,6-Dichloro-4-methylphenoxy)ethoxy]thiazol-5-yl}-3,9-diazabicyclo[3.3.1]non-6-ene-6-carboxylic acid (3-chloro-2-methylbenzyl)cyclopropyl-amide] | 1.1 |
| (rac.)-(1R*, 5S*)-7-{4-[3-(3-Chloro-2,6-difluorophenoxy)propyl]thiazol-2-yl}-3,9-diazabicyclo[3.3.1]non-6-ene-6-carboxylic acid cyclopropyl-(2,3-dichloro-benzyl)amide [Example 3] | 16 |
| (rac.)-(1R*, 5S*)-7-{5-[2-(4-Chloro-3,5-dimethylphenoxy)ethyl]-4-methylthiazol-2-yl}-3,9-diazabicyclo[3.3.1]non-6-ene-6-carboxylic acid cyclopropyl-(3-methoxy-2-methylbenzyl)amide [Example 1] | 57 |
